Results taken from patent US20260034123A1 (Cedilla Therapeutics, Inc., priority 2022, published 2026).

Experiments:
CDK2/Cyclin E1 [1] = target: T1, CDK2/Cyclin E1 (Homo sapiens, UniProt P24941); experiment: Caliper LabChip EZ Reader mobility shift assay; format: biochemical; conditions: 2.5 nM CDK2/Cyclin E1(14-475), 100 μM ATP, 30 min preincubation; read-out: Caliper Assay (CDK2/CCNE1): IC50
Protocol: Inhibition of CDK2/Cyclin E1 activity in the presence of compounds of the present disclosure was evaluated using a Caliper LabChip® EZ Reader mobility shift assay. In the assay, activated CDK2/Cyclin E1 catalyzes the phosphorylation of a fluorescently tagged peptide 5-FAM-QSPKKG-CONH2 (PerkinElmer, FL Peptide 18) which induces a difference in capillary electrophoresis mobility. The peptide substrate and product were measured, and the conversion ratio was used to determine the inhibition (as % activity and IC50 values) of CDK2/Cyclin E1. Reactions contained 50 mM HEPES pH 7.5, 10 mM MgCl2, 1 mM EDTA, 2 mM DTT, 0.01% Brij35, 0.5 mg/mL BSA, 0.1% DMSO, 2.5 nM CDK2/Cyclin E1(14-475), 100 μM ATP, and 1.5 μM fluorescent peptide substrate.
Dose titrations of inhibitors in 100% DMSO were combined with 3.25 nM CDK2/Cyclin E1(14-475) and 130 μM of ATP in reaction buffer. The mixtures were incubated for 30 minutes before the addition of fluorescent peptide substrate to initiate the kinase reaction. The final conditions were 2.5 nM CDK2/Cyclin E1(14-475), 100 μM ATP, and 1.5 μM fluorescent peptide. The reactions were stopped after 100 minutes with the addition of EDTA (6 mM final EDTA concentration). The stopped reactions were analyzed on a Caliper LabChip® EZ Reader 11. The conversion ratios were normalized to yield % activity, plotted against compound concentration, and fit to a four-parameter equation to determine the IC50 for each compound.

Kuramochi cells RB-WT = experiment: IncuCyte Kuramochi cell proliferation assay, RB-WT; format: cell-based; conditions: 72 hours, cell count
In short: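 mApple-H2B-labelled Kuramochi cells were treated with a 10-point, half-log series (top 20 µM) and imaged at 0 and 72 h. Fluorescent nuclei were counted, and the 0–72 h fold change was normalized to DMSO wells. GI50 came from dose-response fits.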

CDK2/Cyclin E1 [2] = target: T1, CDK2/Cyclin E1; experiment: ADP-Glo Luminescent Kinase Assay (CDK2/E1-37C); format: biochemical; conditions: 0.18 nM CDK2/Cyclin E1, 100 μM ATP, Histone H1, 37° C.; read-out: ADPGLO (CDK2/E1-37C): IC50
In short: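 Activated CDK2/Cyclin E1 (0.18 nM final) preincubated with compound 60 min at 37 °C, then reacted with 100 μM ATP and Histone H1 ([…]) for 90 min at 37 °C in HEPES pH 7.5 buffer. ADP-Glo luminescence normalized to % activity; IC50 from four-parameter fit.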

SMILES	IC50 (CDK2/Cyclin E1 [1])	IC50 (CDK2/Cyclin E1 [2])	IC50 (Kuramochi cells RB-WT)
CC1(C)C[C@@H]1C(=O)N1CC2(CN(C(=O)c3cncs3)CC2COCc2cccc(-c3ccc(C(F)(F)F)cc3)c2C(=O)O)C1 (stereo partly drawn) [Compound I-4, 3-(((2-((S)-2,2-dimethylcyclopropane-1-carbonyl)-6-(thiazole-5-carbonyl)-2,6-diazaspiro[3.4]octan-8-yl)methoxy)methyl)-4′-(trifluoromethyl)-[1,1′-biphenyl]-2-carboxylic acid]	< 10 nM	0.5 to 5 µM	> 10 µM
COC(=O)c1c(COCC2CN(C(=O)c3cncs3)CC23CN(C(=O)[C@H]2CC2(C)C)C3)cccc1-c1ccc(C(F)(F)F)cc1 (stereo partly drawn) [Compound I-5, methyl 3-(((2-((S)-2,2-dimethylcyclopropane-1-carbonyl)-6-(thiazole-5-carbonyl)-2,6-diazaspiro[3.4]octan-8-yl)methoxy)methyl)-4′-(trifluoromethyl)-[1,1′-biphenyl]-2-carboxylate]	10 to 100 nM	0.5 to 5 µM	5 to 10 µM
CC1(C)C[C@@H]1C(=O)N1CC2(CN(C(=O)c3cnn(Cc4ccc(C(=O)O)cc4)c3)CC2COCc2cccc(-c3ccc(C(F)(F)F)cc3)n2)C1 (stereo partly drawn) [Compound I-6, 4-((4-(2-((S)-2,2-dimethylcyclopropane-1-carbonyl)-8-(((6-(4-(trifluoromethyl)phenyl)pyridin-2-yl)methoxy)methyl)-2,6-diazaspiro[3.4]octane-6-carbonyl)-1H-pyrazol-1-yl)methyl)benzoic acid]	1000 to 10000 nM	> 10 µM	> 10 µM
Cc1c(COC[C@@H]2CN(C(=O)c3cncs3)CC23CN(C(=O)[C@H]2CC2(C)C)C3)cccc1C1CCOCC1 [Compound I-31, ((S)-2-((S)-2,2-dimethylcyclopropanecarbonyl)-8-(((2-methyl-3-(tetrahydro-2H-pyran-4-yl)benzyl)oxy)methyl)-2,6-diazaspiro[3.4]octan-6-yl)(thiazol-5-yl)methanone]	100 to 1000 nM	0.5 to 5 µM	5 to 10 µM
CC1(C)C[C@@H]1C(=O)N1CC2(CN(C(=O)c3cncs3)C[C@H]2COCC2CCCCO2)C1 (stereo partly drawn) [Compound I-32, ((S)-2-((S)-2,2-dimethylcyclopropane-1-carbonyl)-8-(((tetrahydro-2H-pyran-2-yl)methoxy)methyl)-2,6-diazaspiro [3.4]octan-6-yl) (thiazol-5-yl) methanone]	> 10000 nM	–	> 10 µM
CC1(C)C[C@@H]1C(=O)N1CC2(CN(C(=O)c3cncs3)C[C@H]2COCc2cccc(-c3ccc(C(F)(F)F)cc3F)n2)C1 [Compound I-33, ((S)-2-((S)-2,2-dimethylcyclopropane-1-carbonyl)-8-(((6-(2-fluoro-4-(trifluoromethyl)phenyl)pyridin-2-yl)methoxy)methyl)-2,6-diazaspiro[3.4]octan-6-yl)(thiazol-5-yl) methanone]	10 to 100 nM	–	5 to 10 µM
CC1(C)C[C@@H]1C(=O)N1CC2(CN(C(=O)c3cncs3)C[C@H]2COCc2cccc(-c3ccc(C(F)(F)F)cc3)n2)C1 [Compound I-34, ((S)-2-((S)-2,2-dimethylcyclopropane-1-carbonyl)-8-(((6-(4-(trifluoromethyl)phenyl)pyridin-2-yl)methoxy)methyl)-2,6-diazaspiro[3.4]octan-6-yl)(thiazol-5-yl)methanone]	10 to 100 nM	0.5 to 5 µM	5 to 10 µM
CC(OCc1cccc(C2CCOCC2)n1)[C@@H]1CN(C(=O)c2cncs2)CC12CN(C(=O)[C@H]1CC1(C)C)C2 (stereo partly drawn) [Compound I-35, ((S)-2-((S)-2,2-dimethylcyclopropane-1-carbonyl)-8-(1-((6-(tetrahydro-2H-pyran-4-yl)pyridin-2-yl)methoxy)ethyl)-2,6-diazaspiro [3.4]octan-6-yl) (thiazol-5-yl) methanone]	> 10000 nM	–	> 10 µM
CC1(C)C[C@@H]1C(=O)N1CC2(CN(C(=O)c3cncs3)C[C@H]2COCc2cccc(-c3ccccc3)n2)C1 [Compound I-36, ((S)-2-((S)-2,2-dimethylcyclopropanecarbonyl)-8-(((6-phenylpyridin-2-yl)methoxy)methyl)-2,6-diazaspiro[3.4]octan-6-yl)(thiazol-5-yl)methanone]	100 to 1000 nM	5 to 10 µM	> 10 µM

Second part, led by results:

IC50 (CDK2/Cyclin E1 [1])	IC50 (CDK2/Cyclin E1 [2])	SMILES	IC50 (Kuramochi cells RB-WT)
> 10000 nM	–	CC1(C)C[C@@H]1C(=O)N1CC2(CN(C(=O)c3cncs3)C[C@H]2COCc2ccnn2C2CCCC2)C1 [Compound I-37, ((S)-8-(((1-cyclopentyl-1H-pyrazol-5-yl)methoxy)methyl)-2-((S)-2,2-dimethylcyclopropanecarbonyl)-2,6-diazaspiro[3.4]octan-6-yl)(thiazol-5-yl)methanone]	> 10 µM
1000 to 10000 nM	–	CC1(C)C[C@@H]1C(=O)N1CC2(CN(C(=O)c3cncs3)C[C@H]2COCc2ccc(Cl)c(Cl)c2)C1 [Compound I-40, ((S)-8-(((3,4-dichlorobenzyl)oxy)methyl)-2-((S)-2,2-dimethylcyclopropanecarbonyl)-2,6-diazaspiro[3.4]octan-6-yl)(thiazol-5-yl)methanone]	> 10 µM
1000 to 10000 nM	–	CC1(C)C[C@@H]1C(=O)N1CC2(CN(C(=O)c3cncs3)C[C@H]2COCc2ccc(C(F)(F)F)cc2)C1 [Compound I-41, ((S)-2-((S)-2,2-dimethylcyclopropane-1-carbonyl)-8-(((4-(trifluoromethyl)benzyl)oxy)methyl)-2,6-diazaspiro[3.4]octan-6-yl)(thiazol-5-yl)methanone]	> 10 µM
1000 to 10000 nM	–	CC1(C)C[C@@H]1C(=O)N1CC2(CN(C(=O)c3cncs3)C[C@H]2COCc2cncc(C3CCOCC3)c2)C1 [Compound I-42, ((S)-2-((S)-2,2-dimethylcyclopropane-1-carbonyl)-8-(((5-(tetrahydro-2H-pyran-4-yl)pyridin-3-yl)methoxy)methyl)-2,6-diazaspiro[3.4]octan-6-yl)(thiazol-5-yl)methanone]	> 10 µM
1000 to 10000 nM	–	CC1(C)C[C@@H]1C(=O)N1CC2(CN(C(=O)c3cncs3)C[C@H]2COCc2cc(C3CCOCC3)ccn2)C1 [Compound I-43, ((S)-2-((S)-2,2-dimethylcyclopropane-1-carbonyl)-8-(((4-(tetrahydro-2H-pyran-4-yl)pyridin-2-yl)methoxy)methyl)-2,6-diazaspiro[3.4]octan-6-yl)(thiazol-5-yl)methanone]	> 10 µM
1000 to 10000 nM	–	CC1(C)C[C@@H]1C(=O)N1CC2(CN(C(=O)c3cncs3)C[C@H]2COCc2cccc(C(F)(F)F)c2)C1 [Compound I-44, ((S)-2-((S)-2,2-dimethylcyclopropanecarbonyl)-8-(((3-(trifluoromethyl)benzyl)oxy)methyl)-2,6-diazaspiro[3.4]octan-6-yl)(thiazol-5-yl)methanone]	> 10 µM
> 10000 nM	–	CC1(C)C[C@@H]1C(=O)N1CC2(CN(C(=O)c3cncs3)C[C@H]2COCc2ccnc(C3CCOCC3)c2)C1 [Compound I-45, ((S)-2-((S)-2,2-dimethylcyclopropane-1-carbonyl)-8-(((2-(tetrahydro-2H-pyran-4-yl)pyridin-4-yl)methoxy)methyl)-2,6-diazaspiro[3.4]octan-6-yl)(thiazol-5-yl)methanone]	> 10 µM
> 10000 nM	–	CC1(C)C[C@@H]1C(=O)N1CC2(C1)CN(c1cccc3ncsc13)CC2COCc1cccc(C2CCOCC2)n1 (stereo partly shown) [Compound I-46]	> 10 µM
> 10000 nM	–	CC1(C)C[C@@H]1C(=O)N1CC2(C1)CN(c1ncnc3ncsc13)CC2COCc1cccc(C2CCOCC2)n1 (stereo partly drawn) [Compound I-47, ((S)-2,2-dimethylcyclopropyl)(8-(((6-(tetrahydro-2H-pyran-4-yl)pyridin-2-yl)methoxy)methyl)-6-(thiazolo[4,5-d]pyrimidin-7-yl)-2,6-diazaspiro[3.4]octan-2-yl)methanone]	> 10 µM
1000 to 10000 nM	–	CC1(C)C[C@@H]1C(=O)N1CC2(CN(C(=O)c3cncs3)CC2COCc2cccc(C3=CCOCC3)n2)C1 (stereo partly shown) [Compound I-48]	> 10 µM
1000 to 10000 nM	–	CC1(C)C[C@@H]1C(=O)N1CC2(CN(C(=O)c3cncs3)C[C@@H]2COCc2cccc(C3CCOCC3)n2)C1 [Compound I-64, ((R)-2-((S)-2,2-dimethylcyclopropane-1-carbonyl)-8-(((6-(tetrahydro-2H-pyran-4-yl)pyridin-2-yl)methoxy)methyl)-2,6-diazaspiro[3.4]octan-6-yl)(thiazol-5-yl) methanone]	> 10 µM
